Reference: the supplement of paper PMC10331698
± gives the standard deviation of the averaged measurements.

Tests used:
Test in all cases: LOEC (log10 uM (lowest observed effect concentration))
[1] = compound: OCC(F)(F)C(F)(F)C(F)(F)C(F)(F)C(F)(F)C(F)(F)C(F)(F)C(F)(F)CO [1H,1H,10H,10H-Perfluorodecane-1,10-diol]
Description: (§1)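 BioMAP Diversity Plus panel in human primary cell co-cultures, 4 concentrations in duplicate blinded samples. Responses are log10 fold change versus DMSO control, processed with tcpl v2.1.0. A hit is called when responses at any concentration exceed the cutoff (the larger of 3*bmad or log10(1.2)); the lowest observed effect concentration (modl_ga, log10 uM) is reported for hits.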

[2] = compound: FC(F)(I)C(F)(F)C(F)(F)C(F)(F)C(F)(F)C(F)(F)I [1,6-Diiodoperfluorohexane]
Description: as §1

Perfluoropinacol = compound: OC(C(F)(F)F)(C(F)(F)F)C(O)(C(F)(F)F)C(F)(F)F [Perfluoropinacol]
Description: as §1

[3] = compound: OCCCC(F)(F)C(F)(F)C(F)(F)C(F)(F)C(F)(F)C(F)(F)C(F)(F)C(F)(F)F [3-(Perfluorooctyl)propanol]
Description: as §1

[4] = compound: C=CC(=O)OCC(F)(F)C(F)(F)C(F)(F)C(F)(F)COC(=O)C=C [1H,1H,6H,6H-Perfluorohexane-1,6-diol diacrylate]
Description: as §1

[5] = compound: OCCC(F)(F)C(F)(F)C(F)(F)C(F)(F)C(F)(F)C(F)(F)C(F)(F)C(F)(F)F [8:2 Fluorotelomer alcohol]
Description: as §1

[6] = compound: C=CC(=O)OCC(F)(F)C(F)(F)C(F)(F)C(F)(F)C(F)(F)C(F)(F)C(F)(F)C(F)F [1H,1H,9H-Perfluorononyl acrylate]
Description: as §1

[7] = compound: O=C(CC(=O)C(F)(F)C(F)(F)C(F)(F)F)c1cccs1 [(Perfluorobutyryl)-2-thenoylmethane]
Description: as §1

[8] = compound: OCC(F)(F)C(F)(F)C(F)(F)C(F)(F)C(F)(F)C(F)(F)C(F)(F)C(F)(F)C(F)(F)C(F)(F)C(F)(F)F [11:1 Fluorotelomer alcohol]
Description: as §1

Test System | LOEC (log10 uM) [1] | LOEC (log10 uM) [2] | LOEC (log10 uM) (Perfluoropinacol) | LOEC (log10 uM) [3] | LOEC (log10 uM) [4] | LOEC (log10 uM) [5] | LOEC (log10 uM) [6] | LOEC (log10 uM) [7] | LOEC (log10 uM) [8]
MyoF ACTA1 down | 1.78 | 0.573 ± 0.39 | 1.3 | 1.07 ± 0.32 | 0.845 | 1.3 | 1.78 |  | 
MyoF CollagenI down |  | 0.845 | 1.78 | 1.3 | 1.3 | 1.3 |  | 1.3 | 
MyoF CollagenIII down | 1.78 | 0.845 | 1.3 | 1.3 | 1.3 | 1.3 | 1.78 | 1.3 | 
MyoF MMP1 up |  |  | 1.78 |  |  |  | 1.78 |  | 
MyoF VCAM1 down | 1.78 | 0.573 ± 0.39 | 1.78 | 1.07 ± 0.32 | 0.845 | 1.3 | 1.78 |  | 
SAg CD38 down |  | 1.78 | 1.3 | 1.3 | 1.3 | 1.3 |  | 1.07 ± 0.32 | 
SAg CD40 down |  | 1.78 | 1.3 | 1.54 ± 0.34 | 1.07 ± 0.32 | 1.54 ± 0.34 | 1.78 | 0.845 | 
SAg CD69 down |  | 1.78 | 1.3 | 1.54 ± 0.34 | 1.3 | 1.54 ± 0.34 |  | 0.845 | 
SAg Eselectin down |  | 1.78 | 1.3 | 1.78 | 0.845 | 1.54 ± 0.34 |  | 0.845 | 
SAg IL8 down |  | 1.78 | 1.54 ± 0.34 | 1.78 | 1.3 | 1.78 |  | 1.07 ± 0.32 | 
SAg MCP1 down |  | 1.78 | 1.54 ± 0.34 | 1.54 ± 0.34 | 1.07 ± 0.32 | 1.78 |  | 1.3 | 
SAg MIG down |  | 1.78 | 1.78 | 1.78 | 1.3 | 1.78 |  | 1.78 | 
SAg PBMCCytotoxicity down | 1.78 | 1.3 |  | 1.3 | 1.07 ± 0.32 | 1.3 | 1.54 ± 0.34 | 1.78 | -1.22
hDFCGF CollagenI up |  |  |  |  |  |  |  |  | -1.22
hDFCGF CollagenIII up |  |  |  |  |  |  |  |  | -0.699
hDFCGF EGFR down | 1.78 |  | 1.54 ± 0.34 | 0.845 |  | 1.54 ± 0.34 |  |  | 
hDFCGF ICAM1 down | 1.78 | 0.845 |  | 1.07 ± 0.32 | 0.845 | 1.3 |  |  | 
hDFCGF IL8 down | 1.78 | 0.845 |  | 1.3 | 1.3 | 1.3 |  |  | 
hDFCGF MMP1 down | 1.78 | 0.845 |  | 1.3 | 1.3 | 1.3 |  | 1.3 | 
hDFCGF PAI1 down | 1.78 | 0.845 | 1.78 | 0.845 | 1.3 | 1.3 |  |  | 
hDFCGF SRB down | 1.54 ± 0.34 | 0.845 |  | 0.845 | 0.845 | 1.3 |  |  | 
hDFCGF TIMP1 down | 1.78 | 1.07 ± 0.32 |  | 1.07 ± 0.32 | 0.845 | 1.3 |  |  | 
